Data published in US12371428B2 (Exelixis, Inc., priority 2019, dated 2025).
pIC50: −log10 of the molar value. Where a name gives a salt, the structure may show the parent alone. Read-outs that look alike come from different tables or passages of the source.

Tests used:
[1] = target: Human KDR (residues 790-1356) (Homo sapiens (Human), UniProt P35968); assay: Human KDR kinase assay, HTRF KinEase (Example B-2); assay type: biochemical
Protocol: (§1) Kinase activity and compound inhibition were also investigated using the HTRF® KinEase assay (Cisbio Cat #62TKOPEB) per manufacturer's instructions. In short, compounds were delivered in 300 nL volumes at 10 different concentrations in DMSO (3% final) to empty 384-well assay plates (Corning cat #3824). A mixture of enzyme, […] biotynlated peptide substrate, and buffer in 10 μL volume was added. The assay was started upon the addition of ATP (at Km). The 10 μL reaction was incubated at room temperature. The reaction was stopped upon the addition of detection buffer containing streptavidin-XL665 ([…]) and TK antibody-Eu3+([…]). After a 60 min incubation at room temperature, the fluorescence at 665 nm and 620 nm was read on an Envision microplate reader (Perkin Elmer).
(§2) Kinase activity normalized to DMSO (100% activity) and reference compound at […] and (0% activity) was calculated using the fluorescence ratio […]. IC50 values were calculated by nonlinear regression analysis using a 4-parameter logistic curve fit in ActivityBase XE (IDBS).
(§3) Example B-2: Human KDR (residues 790-1356; CarnaBio, 0.1 ng/well) was also incubated with enzymatic buffer (Cisbio) supplemented with 5 mM MgCl2, 1 mM MnCl2, and 1 mM DTT. The mixture was added to the pre-plated compounds. The reaction was initiated upon addition of ATP at Km (4.0 μM). The reaction was incubated at room temperature for 40 min and stopped upon the addition of SA-XL665 and TK-antibody both diluted in EDTA-containing kinase detection buffer (Cisbio). The kinase activity was calculated as stated above and the IC50 values were reported.

[2] = target: Human MER (residues 528-999) (Homo sapiens (Human), UniProt Q12866); assay: Human Mer kinase assay, HTRF KinEase (Example C-2); assay type: biochemical
Protocol: as §1, §2
Example C-2: Human MER (residues 528-999; CarnaBio, 1 ng/well) was also incubated with enzymatic buffer (Cisbio) supplemented with 5 mM MgCl2 and 1 mM DTT. The mixture was added to the pre-plated compounds. The reaction was initiated upon addition of ATP at Km (40 μM). The reaction was incubated at room temperature for 60 min and stopped upon the addition of SA-XL665 and TK-antibody both diluted in EDTA-containing kinase detection buffer (Cisbio). The kinase activity was calculated as stated above and the IC50 values were reported.

[3] = target: Met (phospho-Met, HGF-stimulated PC-3 prostate cancer cells) (Homo sapiens (Human), UniProt P08581); assay: Met autophosphorylation ELISA in PC-3 cells (Example F); assay type: cell-based; details: cellular activity; Met autophosphorylation ELISA in PC-3 cells; read-out: c-Met IC50
In short: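 IC50 values derive from a 4-parameter logistic fit of phospho-Met (panTyr) sandwich ELISA signals in PC-3 lysates, scaled between DMSO and reference-inhibitor wells. Cells, starved 3 h in serum-free medium, had 1 h compound exposure (8 doses, 0.3% DMSO) before 10 min stimulation with 100 ng/mL HGF.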

[4] = target: KDR (phospho-KDR, VEGF165-stimulated HUVEC cells) (Homo sapiens (Human), UniProt P35968); assay: KDR autophosphorylation ELISA in HUVEC cells (Example G); assay type: cell-based; details: cellular activity; KDR autophosphorylation ELISA in HUVEC cells
In short: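 Inhibition of VEGF165-driven KDR autophosphorylation is measured in primary human umbilical vein endothelial cells after 24 h serum deprivation. Compound preincubation lasts 1 h before a 5-minute challenge with 100 ng/mL ligand, and phosphorylated receptor is then measured by ELISA in the lysates.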

[5] = target: Mer (phospho-Mer, MERTK-transfected 293A cells) (Homo sapiens (Human), UniProt Q12866); assay: Mer autophosphorylation ELISA in transient transfected 293A cells (Example H); assay type: cell-based; details: cellular activity; Mer autophosphorylation ELISA in transient transfected 293A cells
In short: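 MERTK-transfected 293A; 8-pt dose, 1 h, serum-free, 0.3% DMSO. Cold lysis with orthovanadate and protease/phosphatase inhibitors. Phospho-Mer by DuoSet IC ELISA vs phospho-Mer standard. IC50: 4-PL fit; DMSO = 100%, reference inhibitor = 0%.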

[6] = target: Human MET (residues 956-1390) (Homo sapiens (Human), UniProt P08581); assay: Human Met kinase assay, HTRF KinEase (Example D-2); assay type: biochemical; details: read-out: c-Met IC50
Protocol: as §1, §2
as §3, with “D-2:” for “B-2:”, “MET” for “KDR”, “956-1390;” for “790-1356;”, “DTT” for “MnCl2,”, “MnCl2.” for “DTT.”, “The reaction was initiated upon addition of ATP at Km (4.0 μM).” left out

[7] = protocol of Example B-2 (other compounds)
[8] = protocol of Example C-2 (other compounds)
[9] = protocol of Example D-2 (other compounds)

Chain of Human MET (residues 956-1390) (P08581 956-1390): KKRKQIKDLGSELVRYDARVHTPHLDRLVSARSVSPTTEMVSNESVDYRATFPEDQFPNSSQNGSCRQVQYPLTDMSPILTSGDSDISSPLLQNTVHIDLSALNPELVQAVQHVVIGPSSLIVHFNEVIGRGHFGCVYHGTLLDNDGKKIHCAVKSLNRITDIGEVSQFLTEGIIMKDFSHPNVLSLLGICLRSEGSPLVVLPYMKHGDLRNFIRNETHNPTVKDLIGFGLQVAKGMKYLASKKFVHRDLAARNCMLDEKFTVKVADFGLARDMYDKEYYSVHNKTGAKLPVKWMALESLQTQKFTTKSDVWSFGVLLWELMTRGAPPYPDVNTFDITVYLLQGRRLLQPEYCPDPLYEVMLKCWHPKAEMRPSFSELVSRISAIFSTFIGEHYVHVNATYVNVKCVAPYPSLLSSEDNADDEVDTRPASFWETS
Chain of Mer (phospho-Mer, MERTK-transfected 293A cells) (Q12866 21-999): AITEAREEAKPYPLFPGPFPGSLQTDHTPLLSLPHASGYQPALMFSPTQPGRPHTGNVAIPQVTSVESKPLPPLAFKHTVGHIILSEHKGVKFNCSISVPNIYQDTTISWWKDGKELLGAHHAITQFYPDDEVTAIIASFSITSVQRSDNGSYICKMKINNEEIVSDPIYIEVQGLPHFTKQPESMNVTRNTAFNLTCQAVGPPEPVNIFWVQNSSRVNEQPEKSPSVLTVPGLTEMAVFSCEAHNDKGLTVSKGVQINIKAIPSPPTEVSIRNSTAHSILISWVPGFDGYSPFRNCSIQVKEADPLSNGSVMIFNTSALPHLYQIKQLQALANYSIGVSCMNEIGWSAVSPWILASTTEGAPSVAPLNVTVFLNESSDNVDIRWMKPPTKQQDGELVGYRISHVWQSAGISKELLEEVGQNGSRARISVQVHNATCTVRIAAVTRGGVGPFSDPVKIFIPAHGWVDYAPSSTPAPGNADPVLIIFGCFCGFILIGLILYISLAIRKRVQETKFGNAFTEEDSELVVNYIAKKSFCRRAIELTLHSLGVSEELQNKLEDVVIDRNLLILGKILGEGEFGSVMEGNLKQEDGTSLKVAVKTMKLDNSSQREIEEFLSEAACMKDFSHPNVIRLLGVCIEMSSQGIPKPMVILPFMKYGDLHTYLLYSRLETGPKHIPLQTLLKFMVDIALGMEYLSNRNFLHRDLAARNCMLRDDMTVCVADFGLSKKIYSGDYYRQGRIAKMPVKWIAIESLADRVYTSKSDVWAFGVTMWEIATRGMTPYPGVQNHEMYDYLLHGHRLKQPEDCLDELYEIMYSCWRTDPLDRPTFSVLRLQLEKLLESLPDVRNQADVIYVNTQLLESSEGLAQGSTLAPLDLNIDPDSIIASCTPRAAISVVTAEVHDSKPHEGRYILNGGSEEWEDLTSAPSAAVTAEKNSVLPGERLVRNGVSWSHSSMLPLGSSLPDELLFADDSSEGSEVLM
Chain of Human MER (residues 528-999) (Q12866 528-999): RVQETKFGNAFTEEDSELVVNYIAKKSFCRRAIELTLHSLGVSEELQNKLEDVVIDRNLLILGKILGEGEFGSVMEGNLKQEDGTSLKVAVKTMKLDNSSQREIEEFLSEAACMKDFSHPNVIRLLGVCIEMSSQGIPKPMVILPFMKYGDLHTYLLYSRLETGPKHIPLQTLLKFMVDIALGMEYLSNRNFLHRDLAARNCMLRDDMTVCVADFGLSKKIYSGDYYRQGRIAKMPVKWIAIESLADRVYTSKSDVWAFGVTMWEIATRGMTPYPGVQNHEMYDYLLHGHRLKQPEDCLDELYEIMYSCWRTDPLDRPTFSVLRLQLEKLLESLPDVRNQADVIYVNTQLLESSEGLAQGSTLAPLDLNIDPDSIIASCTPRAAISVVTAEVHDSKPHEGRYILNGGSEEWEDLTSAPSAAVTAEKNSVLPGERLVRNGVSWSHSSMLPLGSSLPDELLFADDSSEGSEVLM
Chain of KDR (phospho-KDR, VEGF165-stimulated HUVEC cells) (P35968 20-1356): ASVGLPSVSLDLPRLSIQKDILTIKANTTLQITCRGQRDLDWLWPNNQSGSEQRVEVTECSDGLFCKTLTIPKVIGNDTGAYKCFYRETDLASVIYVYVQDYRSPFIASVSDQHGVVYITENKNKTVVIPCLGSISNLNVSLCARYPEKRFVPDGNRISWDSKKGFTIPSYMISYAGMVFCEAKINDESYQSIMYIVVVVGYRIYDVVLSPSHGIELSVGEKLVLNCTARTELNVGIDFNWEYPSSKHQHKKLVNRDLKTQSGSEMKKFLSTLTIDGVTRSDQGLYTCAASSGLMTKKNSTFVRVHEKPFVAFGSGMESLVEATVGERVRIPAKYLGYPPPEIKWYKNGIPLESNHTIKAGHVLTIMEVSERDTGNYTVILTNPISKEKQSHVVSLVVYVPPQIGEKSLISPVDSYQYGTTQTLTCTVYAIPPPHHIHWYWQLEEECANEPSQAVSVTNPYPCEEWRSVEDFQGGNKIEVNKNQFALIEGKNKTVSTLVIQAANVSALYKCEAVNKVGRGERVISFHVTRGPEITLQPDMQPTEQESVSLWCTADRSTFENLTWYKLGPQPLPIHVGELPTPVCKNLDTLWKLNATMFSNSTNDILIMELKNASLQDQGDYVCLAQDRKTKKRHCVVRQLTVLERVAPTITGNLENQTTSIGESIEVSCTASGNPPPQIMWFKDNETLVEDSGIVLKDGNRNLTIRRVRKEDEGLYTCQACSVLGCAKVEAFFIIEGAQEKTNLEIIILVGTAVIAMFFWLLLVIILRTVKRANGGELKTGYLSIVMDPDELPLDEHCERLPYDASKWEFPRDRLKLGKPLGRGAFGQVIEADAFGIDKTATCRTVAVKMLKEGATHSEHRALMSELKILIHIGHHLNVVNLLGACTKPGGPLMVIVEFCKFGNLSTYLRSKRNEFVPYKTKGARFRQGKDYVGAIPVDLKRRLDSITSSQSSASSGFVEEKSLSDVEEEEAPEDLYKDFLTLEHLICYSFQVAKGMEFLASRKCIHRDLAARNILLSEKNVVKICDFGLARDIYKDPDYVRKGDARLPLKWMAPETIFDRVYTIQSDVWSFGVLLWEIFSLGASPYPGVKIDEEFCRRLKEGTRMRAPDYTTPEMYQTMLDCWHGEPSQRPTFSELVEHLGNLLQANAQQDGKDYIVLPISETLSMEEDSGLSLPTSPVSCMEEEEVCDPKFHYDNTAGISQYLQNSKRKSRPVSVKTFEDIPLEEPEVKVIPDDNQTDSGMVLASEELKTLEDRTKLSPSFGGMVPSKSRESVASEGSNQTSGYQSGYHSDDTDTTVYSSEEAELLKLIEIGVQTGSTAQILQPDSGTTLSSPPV
Chain of Human KDR (residues 790-1356) (P35968 790-1356): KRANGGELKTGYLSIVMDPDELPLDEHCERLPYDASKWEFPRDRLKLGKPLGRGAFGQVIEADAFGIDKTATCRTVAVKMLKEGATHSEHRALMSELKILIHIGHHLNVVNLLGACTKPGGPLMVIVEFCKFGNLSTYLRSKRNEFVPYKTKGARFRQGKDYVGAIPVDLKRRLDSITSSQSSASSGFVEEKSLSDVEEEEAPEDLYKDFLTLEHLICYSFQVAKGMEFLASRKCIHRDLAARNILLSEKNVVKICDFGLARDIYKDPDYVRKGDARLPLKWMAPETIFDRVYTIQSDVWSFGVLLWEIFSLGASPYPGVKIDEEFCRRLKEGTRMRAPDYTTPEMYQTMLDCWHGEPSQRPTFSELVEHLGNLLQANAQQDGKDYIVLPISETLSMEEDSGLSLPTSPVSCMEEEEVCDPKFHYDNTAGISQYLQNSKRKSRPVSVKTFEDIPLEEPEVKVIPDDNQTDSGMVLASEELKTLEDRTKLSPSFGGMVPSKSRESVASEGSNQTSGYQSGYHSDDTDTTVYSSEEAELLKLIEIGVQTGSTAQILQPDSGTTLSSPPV

CCOc1c(C(=O)Nc2ccc(Oc3ccnc4cc(OC)c(OC)nc34)c(F)c2)nnc(C)c1-c1ccc(F)cc1 [Compound 569, N-[4-[(6,7-Dimethoxy-1,5-naphthyridin-4-yl)oxy]-3-fluorophenyl]-4-ethoxy-5-(4-fluorophenyl)-6-methylpyridazine-3-carboxamide]
pIC50 ([1]; protocol of Example B-2): > 7.00 | pIC50 ([2]; protocol of Example C-2): > 7.00 | pIC50 [3]: > 7.00 | pIC50 [4]: > 7.00 | pIC50 [5]: > 7.00

COc1cc2nccc(Oc3ccc(NC(=O)c4c(C)c(C)c(C)n(-c5ccc(F)cc5)c4=O)cc3F)c2nc1OC [Compound 306, N-[4-[(6,7-Dimethoxy-1,5-naphthyridin-4-yl)oxy]-3-fluorophenyl]-1-(4-fluorophenyl)-4,5,6-trimethyl-2-oxopyridine-3-carboxamide]
pIC50 [1, 7]: < 6.52 | pIC50 [2, 8]: > 7.00 | pIC50 [3]: > 7.00 | pIC50 [4]: 6.52 to 7.00 | pIC50 [5]: > 7.00

COc1cc2nccc(Oc3ccc(NC(=O)c4c(C)c(Br)c(C)n(-c5ccc(F)cc5)c4=O)cc3F)c2nc1OC [Compound 305, 5-Bromo-N-[4-[(6,7-dimethoxy-1,5-naphthyridin-4-yl)oxy]-3-fluorophenyl]-1-(4-fluorophenyl)-4,6-dimethyl-2-oxopyridine-3-carboxamide]
pIC50 [1, 7]: < 6.52 | pIC50 [2, 8]: > 7.00 | pIC50 [3]: > 7.00 | pIC50 [4]: 6.52 to 7.00 | pIC50 [5]: > 7.00

COc1cnc2c(Oc3ccc(NC(=O)c4c(C)c(Cl)c(C)n(-c5ccc(F)cc5)c4=O)cc3)ccnc2c1 [Compound 310, 5-Chloro-1-(4-fluorophenyl)-N-[4-[(7-methoxy-1,5-naphthyridin-4-yl)oxy]phenyl]-4,6-dimethyl-2-oxopyridine-3-carboxamide]
pIC50 [1, 7]: < 6.52 | pIC50 [2, 8]: 6.52 to 7.00 | pIC50 [3]: > 7.00 | pIC50 [4]: < 6.52 | pIC50 [5]: > 7.00

COc1ccc2nccc(Oc3ccc(NC(=O)c4cnc(C)n(-c5ccc(F)cc5)c4=O)cc3)c2n1 [Compound 385, 1-(4-fluorophenyl)-N-[4-[(6-methoxy-1,5-naphthyridin-4-yl)oxy]phenyl]-2-methyl-6-oxopyrimidine-5-carboxamide]
pIC50 [1, 7]: < 6.52 | pIC50 [2, 8]: > 7.00 | pIC50 [3]: > 7.00 | pIC50 [4]: < 6.52 | pIC50 [5]: > 7.00

Cc1ccn(-c2ccc(F)cc2)c(=O)c1C(=O)Nc1ccc(Oc2ccnc3cccnc23)c(F)c1 [Compound 303, N-[3-Fluoro-4-(1,5-naphthyridin-4-yloxy)phenyl]-1-(4-fluorophenyl)-4-methyl-2-oxopyridine-3-carboxamide]
pIC50 [1, 7]: < 6.52 | pIC50 [2, 8]: 6.52 to 7.00 | pIC50 [3]: > 7.00 | pIC50 [4]: < 6.52 | pIC50 [5]: > 7.00

COc1cnc2c(Oc3ccc(NC(=O)c4nnc(C)c(-c5ccc(F)cc5)c4OC(C)C)cc3F)ccnc2c1 [Compound 567, N-[3-Fluoro-4-[(7-methoxy-1,5-naphthyridin-4-yl)oxy]phenyl]-5-(4-fluorophenyl)-6-methyl-4-propan-2-yloxypyridazine-3-carboxamide]
pIC50 ([1]; protocol of Example B-2): > 7.00 | pIC50 ([2]; protocol of Example C-2): > 7.00 | pIC50 [3]: > 7.00 | pIC50 [4]: > 7.00 | pIC50 [5]: > 7.00

COc1cc2nccc(Oc3ccc(NC(=O)c4cnc(C)n(-c5ccc(F)cc5)c4=O)cc3)c2nc1OC [Compound 267, N-[4-[(6,7-Dimethoxy-1,5-naphthyridin-4-yl)oxy]phenyl]-1-(4-fluorophenyl)-2-methyl-6-oxopyrimidine-5-carboxamide]
pIC50 [1, 7]: < 6.52 | pIC50 [2, 8]: < 6.52 | pIC50 [3]: > 7.00 | pIC50 [4]: < 6.52

COc1nc2c(Oc3ccc(NC(=O)c4cn(C(C)C)cc(-c5ccc(F)cc5)c4=O)cc3F)ccnc2cc1-c1cccnc1 [Compound 605, N-[3-Fluoro-4-[(6-methoxy-7-pyridin-3-yl-1,5-naphthyridin-4-yl)oxy]phenyl]-5-(4-fluorophenyl)-4-oxo-1-propan-2-ylpyridine-3-carboxamide hydrochloride]
pIC50 ([2]; protocol of Example C-2): > 7.00 | pIC50 ([6]; protocol of Example D-2): > 7.00 | pIC50 [3]: > 7.00 | pIC50 [4]: 6.52 to 7.00 | pIC50 [5]: > 7.00

COc1cnc2c(Oc3ccc(NC(=O)c4c5n(cc(-c6ccc(F)cc6)c4=O)CCC5)cc3F)ccnc2c1 [Compound 405, N-[3-fluoro-4-[(7-methoxy-1,5-naphthyridin-4-yl)oxy]phenyl]-6-(4-fluorophenyl)-7-oxo-2,3-dihydro-1H-indolizine-8-carboxamide]
pIC50 [2, 8]: > 7.00 | pIC50 [6, 9]: > 7.00 | pIC50 [3]: > 7.00 | pIC50 [4]: < 6.52 | pIC50 [5]: > 7.00

COc1ccc2nccc(Oc3ccc(NC(=O)c4cn(C(C)C)c(C)c(-c5ccc(F)cc5)c4=O)cc3F)c2n1 [Compound 110, N-[3-Fluoro-4-[(6-methoxy-1,5-naphthyridin-4-yl)oxy]phenyl]-5-(4-fluorophenyl)-6-methyl-4-oxo-1-propan-2-ylpyridine-3-carboxamide]
pIC50 [2, 8]: > 7.00 | pIC50 [6, 9]: > 7.00 | pIC50 [3]: > 7.00 | pIC50 [4]: < 6.52 | pIC50 [5]: > 7.00

COc1cc2nccc(Oc3ccc(NC(=O)c4ccc(CO)n(-c5ccc(F)cc5)c4=O)cc3F)c2nc1OC [Compound 357, N-[4-[(6,7-dimethoxy-1,5-naphthyridin-4-yl)oxy]-3-fluorophenyl]-1-(4-fluorophenyl)-6-(hydroxymethyl)-2-oxopyridine-3-carboxamide]
pIC50 [1, 7]: > 7.00 | pIC50 [2, 8]: > 7.00 | pIC50 [3]: > 7.00 | pIC50 [5]: > 7.00

COc1cc2nccc(Oc3ccc(NC(=O)c4cn(N(C)C)cc(-c5ccc(F)cc5)c4=O)cc3F)c2nc1OC [Compound 136, N-[4-[(6,7-Dimethoxy-1,5-naphthyridin-4-yl)oxy]-3-fluorophenyl]-1-(dimethylamino)-5-(4-fluorophenyl)-4-oxopyridine-3-carboxamide]
pIC50 [2, 8]: > 7.00 | pIC50 [6, 9]: > 7.00 | pIC50 [3]: > 7.00 | pIC50 [4]: > 7.00 | pIC50 [5]: > 7.00

COc1cc2nccc(Oc3ccc(NC(=O)c4c5n(cc(-c6ccc(F)cc6)c4=O)CCC5)cc3F)c2nc1OC [Compound 404, N-[4-[(6,7-dimethoxy-1,5-naphthyridin-4-yl)oxy]-3-fluorophenyl]-6-(4-fluorophenyl)-7-oxo-2,3-dihydro-1H-indolizine-8-carboxamide]
pIC50 [2, 8]: > 7.00 | pIC50 [6, 9]: > 7.00 | pIC50 [3]: > 7.00 | pIC50 [4]: > 7.00 | pIC50 [5]: > 7.00

CNn1cc(C(=O)Nc2ccc(Oc3ccnc4cc(OC)c(OC)nc34)c(F)c2)c(=O)c(-c2ccc(F)cc2)c1 [Compound 135, N-[4-[(6,7-Dimethoxy-1,5-naphthyridin-4-yl)oxy]-3-fluorophenyl]-5-(4-fluorophenyl)-1-(methylamino)-4-oxopyridine-3-carboxamide]
pIC50 [2, 8]: > 7.00 | pIC50 [6, 9]: > 7.00 | pIC50 [3]: > 7.00 | pIC50 [4]: > 7.00 | pIC50 [5]: > 7.00
